Measurements reported in patent US6844356B2, “Hemorrhoid therapeutic treatment” (priority 2003, dated 2005).

What was measured:
[1] = cited from earlier work
hemorrhoid = experiment: injection of the solution into the hemorrhoid of patients; format: in vivo; conditions: injected into the hemorrhoid as water solution
Method: A chemical treatment for the permanent relief of hemorrhoids is provided by the chemical composition of this invention. The composition comprises a mixture of Yong Noe, a Chinese herb known to Western man as camphor, quinine, and distilled water. These two ingredients are ground into powder and dissolved in distilled water. The composition is then injected by a medical practitioner into the affected area at least once, and perhaps several times, over a two week period. After a period of time, the hemorrhoidal tissue will turn dark, harden, and flake off leaving the skin clear at the site of the former hemorrhoid. A mixture of Yong Noe and quinine in a […] in an amount of 37.5 grams are divided into 7 equal weight portions. Each portion of the mixture is dissolved in 4 grams of water by placing the composition in a container in boiling water for 3-5 minutes. The composition is a clear whitish solution. This solution is used at room temperature as the medicament for the treatment of hemorrhoids as will be discussed infra. […] The composition of 37.5 grams of solids is comprised of 25 grams of quinine and 12.5 grams of camphor. This mixture is equally divided and filled into seven different 10 cc vials, and 4 cc distilled water is added to each vial. […]

| SMILES | solubility [1] | result of injection into the hemorrhoid (hemorrhoid) |
| --- | --- | --- |
| CC12CCC(CC1=O)C2(C)C (centres unmarked) [Camphor] | only slightly soluble in water | – |
| C=C[C@H]1C[N@@]2CC[C@H]1C[C@H]2[C@H](O)c1ccnc2ccc(OC)cc12 [quinine alone, quinine] | – | not effectual |
